{"source": "patent US9738677B2", "about": "“Amphotericin B derivative with reduced toxicity” (priority 2014, dated 2017)", "key": {"[1]": {"assay": "ITC sterol binding, POPC LUVs containing 10% cholesterol", "protocol": "Isothermal Titration calorimetry (ITC)\nIn an optimized isothermal titration calorimetry (ITC)-based assay, an aqueous solution of AmB was titrated with a suspension of large unilamellar vesicles (LUVs) comprised of only 1-palmitoyl-2-oleoyl-sn-glycero-3-phosphocholine (POPC), and the net exotherm was recorded. The titration was repeated using POPC LUVs containing 10% ergosterol. […] The titration was repeated using C2′epiAmB. […] The ITC assay was also conducted with cholesterol in place of ergosterol.\nExperiments were performed using a NanoITC isothermal titration calorimeter (TA Instruments, Wilmington, Del.). Solutions of the compounds to be tested were prepared by diluting a 60.0 mM stock solution of the compound in DMSO to 600 μM with K buffer (5.0 mM HEPES/KHEPES, pH=7.4). The final DMSO concentration in the solution was 1% v/v. Large unilamellar vesicles comprised of only 1-palmitoyl-2-oleoyl-sn-glycero-3-phosphocholine (POPC LUVs) were prepared and phosphorus and ergosterol content was quantified as described below. The LUV solutions were diluted with buffer and DMSO to give a final phospholipid concentration of 12.0 mM in a 1% DMSO/K buffer solution. Immediately prior to use, all solutions were incubated at 37° C. for 30 minutes and degassed under vacuum at 37° C. for 10 minutes. The reference cell of the instrument (volume=0.190 mL) was filled with a solution of 1% v/v DMSO/K buffer.\nPalmitoyl oleoyl phosphatidylcholine (POPC) was obtained as a 20 mg/mL solution in CHCl3 from Avanti Polar Lipids (Alabaster, Ala.) and was stored at −20° C. under an atmosphere of dry argon and used within 1 month. A 4 mg/mL solution of ergosterol in CHCl3 was prepared monthly and stored at 4° C. under an atmosphere of dry argon. […]\nNanoAnalyze software (TA Instruments) was used for baseline determination and integration of the injection heats, and Microsoft Excel was used for subtraction of dilution heats and the calculation of overall heat evolved. […] By this method, the overall heat evolved during the experiment was calculated using the following formula: […]"}, "C. albicans [2]": {"system": "C. albicans", "assay": "Broth microdilution MIC assay", "format": "cell-based", "conditions": "Candida albicans, 24 hours, 37° C., no visible growth", "protocol": "Exemplary methods for antifungal activity assays are as follows:\nC. albicans was cultured in a similar manner to S. cerevisiae except both liquid and solid cultures were incubated at 37° C.\nThe protocol for the broth microdilution assay was adapted from the Clinical and Laboratory Standards Institute document M27-A2. Clinical and Laboratory Standards Institute. Reference Method for Broth Dilution Antifungal Susceptibility Testing, M27-A2, Approved Standard 2nd Ed. Vol. 22, Number 15, 2002. 50 mL of YPD media was inoculated and incubated overnight at either 30° C. (S. cerevisiae) or 37° C. (C. albicans) in a shaker incubator. The cell suspension was then diluted with YPD to an OD600 of 0.10 (˜5×10^5 cfu/mL) as measured by a Shimadzu (Kyoto, Japan) PharmaSpec UV-1700 UV/Vis spectrophotometer. The solution was diluted 10-fold with YPD, and 195 μL aliquots of the dilute cell suspension were added to sterile Falcon (Franklin Lakes, N.J.) Microtest 96-well plates in triplicate. Compounds were prepared either as […] (AmB, C2′deOAmB) or 2 mM (AmdeB) stock solutions in DMSO and serially diluted to the following concentrations with DMSO: 1600, 1200, 800, 400, 320, 240, 200, 160, 120, 80, 40, 20, 10 and 5 μM. 5 μL aliquots of each solution were added to the 96-well plate in triplicate, with each column representing a different concentration of the test compound. […]"}, "C. albicans [3]": {"system": "C. albicans", "assay": "Mouse model of disseminated candidiasis, kidney fungal burden", "format": "in vivo", "conditions": "neutropenic mice, single intraperitoneal 16 mg/kg 2 hours post infection, kidneys at 24 hours post infection", "protocol": "FIG. 7 is a bar graph depicting kidney fungal load (colony forming units, CFUs) in neutropenic mice inoculated intravenously with C. albicans, and then treated two hours later with a single intraperitoneal dose of vehicle or 16 mg/kg AmB or C2′epiAmB.\nThe antifungal efficacy of C2′epiAmB was tested in a mouse model of disseminated candidiasis. In this experiment neutropenic mice were infected with C. albicans via their tail veins, and then 2 hours post infection the mice were treated with a single intraperitoneal injection of 16 mg/kg AmB or C2′epiAmB. Then at 24 hours post infection the mice were sacrificed, and the fungal burden present in their kidneys was quantified."}}, "note": "“Also recorded” adds a separate entry of the source."}
{"compound": "C[C@@H]1[C@H](O)[C@@H](C)/C=C/C=C/C=C/C=C/C=C/C=C/C=C/[C@H](O[C@@H]2O[C@H](C)[C@@H](O)[C@H](N)[C@H]2O)CC2O[C@](O)(C[C@@H](O)C[C@@H](O)[C@H](O)CC[C@@H](O)C[C@@H](O)CC(=O)O[C@H]1C)C[C@H](O)[C@H]2C(=O)O", "note": "[C2′epiAmB]", "values": [{"measurement": "Total exotherm", "setting": "[1]; 10% cholesterol LUVs, 600 μM compound", "value": "-6.43 ± 2.80", "unit": "µcal"}, {"measurement": "Binding to cholesterol (in words)", "setting": "[1]; within the limits of the binding assay", "value": "but not cholesterol; also recorded: not found to bind to cholesterol; also recorded: do not bind cholesterol"}, {"measurement": "MIC", "setting": "C. albicans [2]", "value": 2, "unit": "µM"}, {"measurement": "Reduction of kidney fungal burden relative to AmB", "setting": "C. albicans [3]", "value": 0.5, "unit": "log units"}]}
